Data published in ChEMBL document CHEMBL3612055, “Design, synthesis and biological evaluation of 1,3-diphenyl-1H-pyrazole derivatives containing benzimidazole skeleton as potential anticancer and apoptosis inducing agents” (Eur J Med Chem, 2015).

Columns and labels:
A549 = experiment: Anticancer activity against human A549 cells assessed as reduction in cell growth incubated for 48 hrs by MTT assay; format: functional, cell-based; conditions: A549, 48 h
MCF7 = experiment: Anticancer activity against human MCF7 cells assessed as reduction in cell growth incubated for 48 hrs by MTT assay; format: functional, cell-based; conditions: MCF7, 48 h
HeLa = experiment: Anticancer activity against human HeLa cells assessed as reduction in cell growth incubated for 48 hrs by MTT assay; format: functional, cell-based
HaCaT = experiment: Cytotoxic activity against human HaCaT cells assessed as reduction in cell growth incubated for 48 hrs by MTT assay; format: cell-based

Compound | IC50 (A549) [µM] | IC50 (MCF7) [µM] | IC50 (HeLa) [µM] | IC50 (HaCaT) [µM]
Fc1ccc(-c2nn(-c3ccccc3)cc2-c2nc3cc(C(F)(F)F)ccc3[nH]2)cc1 | 2.34 | 2.13 | 3.52 | > 50
Fc1ccc2[nH]c(-c3cn(-c4ccccc4)nc3-c3ccccc3)nc2c1 | 1.72 | 2.43 | 3.61 | > 50
Clc1ccc2[nH]c(-c3cn(-c4ccccc4)nc3-c3ccccc3)nc2c1 | 2.37 | 1.96 | 3.48 | > 50
COc1ccc2[nH]c(-c3cn(-c4ccccc4)nc3-c3ccccc3)nc2c1 | 1.23 | 1.59 | 2.87 | > 50
COc1ccc(-c2nn(-c3ccccc3)cc2-c2nc3cc(C)c(C)cc3[nH]2)cc1 | 5.85 | 12.8 | 8.93 | 21.4
Cc1ccc2[nH]c(-c3cn(-c4ccccc4)nc3-c3ccc(Cl)cc3)nc2c1 | 4.64 | 8.23 | 5.36 | > 50
Fc1ccc(-c2nn(-c3ccccc3)cc2-c2nc3cc4ccccc4cc3[nH]2)cc1 | 21.5 | 9.24 | 23.6 | > 50
FC(F)(F)c1ccc2[nH]c(-c3cn(-c4ccccc4)nc3-c3ccc(Cl)cc3)nc2c1 | 3.36 | 4.21 | 4.42 | 41.8
COc1ccc(-c2nn(-c3ccccc3)cc2-c2nc3cc4ccccc4cc3[nH]2)cc1 | 11.9 | 7.46 | 12.4 | > 50
Fc1ccc2[nH]c(-c3cn(-c4ccccc4)nc3-c3ccc(Cl)cc3)nc2c1 | 4.61 | 2.83 | 2.77 | > 50
Fc1ccc(-c2nn(-c3ccccc3)cc2-c2nc3ccccc3[nH]2)cc1 | 1.51 | 3.2 | 2.33 | > 50
Cc1cc2nc(-c3cn(-c4ccccc4)nc3-c3ccc(F)cc3)[nH]c2cc1C | > 50 | 27.2 | 10.2 | > 50
Fc1ccc(-c2nn(-c3ccccc3)cc2-c2nc3cc(Br)ccc3[nH]2)cc1 | 5.83 | 3.21 | 4.94 | 21.8
O=c1[nH]cc(F)c(=O)[nH]1 [FLUOROURACIL] | 2.13 | 2.36 | 4.6 | 15.3
Cc1ccc2[nH]c(-c3cn(-c4ccccc4)nc3-c3ccc(F)cc3)nc2c1 | 1.44 | 1.12 | 3.63 | > 50
COc1ccc(-c2nn(-c3ccccc3)cc2-c2nc3cc(OC)ccc3[nH]2)cc1 | 22.7 | 3.13 | 1.14 | > 50
FC(F)(F)c1ccc2[nH]c(-c3cn(-c4ccccc4)nc3-c3ccccc3)nc2c1 | 5.93 | 2.66 | 1.92 | 37.2
COc1ccc2[nH]c(-c3cn(-c4ccccc4)nc3-c3ccc(Cl)cc3)nc2c1 | 2.42 | 1.76 | 3.63 | > 50
COc1ccc(-c2nn(-c3ccccc3)cc2-c2nc3cc(F)ccc3[nH]2)cc1 | 1.98 | 1.51 | 1.74 | > 50
O=Cc1cn(-c2ccccc2)nc1-c1ccc(F)cc1 | 8.66 | 24.8 | 16.6 | > 50

Compound | IC50 (A549) [µM] | IC50 (MCF7) [µM] | IC50 (HeLa) [µM] | IC50 (HaCaT) [µM]
COc1ccc(-c2nn(-c3ccccc3)cc2-c2nc3ccccc3[nH]2)cc1 | 2.36 | 2.54 | 3.67 | > 50
c1ccc(-c2nn(-c3ccccc3)cc2-c2nc3cc4ccccc4cc3[nH]2)cc1 | 19.3 | 12.6 | 21.3 | > 50
Cc1cc2nc(-c3cn(-c4ccccc4)nc3-c3ccc(Cl)cc3)[nH]c2cc1C | 17.7 | 13 | 21.8 | > 50
COc1ccc(-c2nn(-c3ccccc3)cc2-c2nc3cc(Br)ccc3[nH]2)cc1 | 6.37 | 1.83 | 1.06 | > 50
Clc1ccc(-c2nn(-c3ccccc3)cc2-c2nc3cc4ccccc4cc3[nH]2)cc1 | 7.73 | 13.9 | 8.13 | > 50
Clc1ccc(-c2nn(-c3ccccc3)cc2-c2nc3cc(Br)ccc3[nH]2)cc1 | 2.17 | 1.92 | 2.16 | > 50
Fc1ccc(-c2nn(-c3ccccc3)cc2-c2nc3cc(Cl)ccc3[nH]2)cc1 | 1.32 | 2.23 | 2.77 | > 50
COc1ccc(-c2nn(-c3ccccc3)cc2-c2nc3cc(Cl)ccc3[nH]2)cc1 | 3.13 | 1.76 | 1.29 | > 50
COc1ccc(-c2nn(-c3ccccc3)cc2-c2nc3cc(C(F)(F)F)ccc3[nH]2)cc1 | 4.82 | 5.73 | 2.76 | > 50
Clc1cc2nc(-c3cn(-c4ccccc4)nc3-c3ccccc3)[nH]c2cc1Cl | 11.1 | 7.56 | 13.4 | 29.7
Fc1ccc(-c2nn(-c3ccccc3)cc2-c2nc3cc(Cl)c(Cl)cc3[nH]2)cc1 | 15.7 | 6.93 | 11.6 | 44.6
Clc1ccc(-c2nn(-c3ccccc3)cc2-c2nc3cc(Cl)c(Cl)cc3[nH]2)cc1 | 19.1 | 48.3 | 12.1 | > 50
COc1ccc(-c2nn(-c3ccccc3)cc2-c2nc3cc(Cl)c(Cl)cc3[nH]2)cc1 | 7.33 | 13.2 | 6.6 | > 50
Cc1ccc2[nH]c(-c3cn(-c4ccccc4)nc3-c3ccccc3)nc2c1 | 3.61 | 5.94 | 6.56 | > 50
c1ccc(-c2nn(-c3ccccc3)cc2-c2nc3ccccc3[nH]2)cc1 | 2.71 | 3.19 | 1.55 | > 50
COc1ccc2[nH]c(-c3cn(-c4ccccc4)nc3-c3ccc(F)cc3)nc2c1 | 1.96 | 0.97 | 7.51 | > 50
O=Cc1cn(-c2ccccc2)nc1-c1ccc(Cl)cc1 | 29.5 | 9.65 | 15.5 | > 50
COc1ccc(-c2nn(-c3ccccc3)cc2-c2nc3cc(C)ccc3[nH]2)cc1 | 5.07 | 6.61 | 3.29 | > 50
Clc1ccc(-c2nn(-c3ccccc3)cc2-c2nc3ccccc3[nH]2)cc1 | 5.96 | 3.03 | 1.65 | > 50
Cc1cc2nc(-c3cn(-c4ccccc4)nc3-c3ccccc3)[nH]c2cc1C | 14.5 | > 50 | 41.5 | > 50
